Measured values published in patent US9017963B2, “Method for detecting microorganisms” (Woundchek Laboratories (US), Inc., priority 2002, dated 2015).
Primed or numbered codes have the meaning given here. No end group written: not given here. *: point of attachment. Dabcyl″ = label, CN(C)c1ccc(/N=N/c2ccc(C(=O)*)cc2)cc1; EDANS = O=S(=O)(O)c1cccc2c(NCCN*)cccc12; Dabcyl′ = not defined here; pyrene = label

Experiments:
[1] = tested on: Serratia marcescens, Streptococcus salivarius, Escherichia coli, Pseudomonas aeruginosa, Enterococcus faecalis supernatants; experiment: Lipase assay, other bacterial supernatants; assay type: biochemical; settings: other bacterial samples; 20 mM Tris (pH 8.5); 37° C., 60 minutes
Procedure: (§1) A culture of each of the following bacterial species was grown to saturation in Brain Heart Infusion (BHI) broth at 37° C. with vigorous shaking (˜200 rpm), using methods that are standard in the art: Staphylococcus aureus; Staphylococcus epidermidis; Serratia marcescens; Streptococcus salivarius; Escherichia coli; Pseudomonas aeruginosa; and Enterococcus faecalis. After overnight growth (to saturation), a 1 mL sample of each culture was obtained, and the cells were removed from the culture supernatant by centrifugation at 12,000×g for 5 minutes. The remaining culture supernatants were stored on ice until required (less than one hour). The bacteria were assayed for the presence or absence of specific enzymes as described below. Alternatively, the bacterial cells are not separated from the culture supernatant, but rather, the assay is carried out on a sample containing the cells still in suspension in their culture broth. […]
(§2) To perform the lipase assay, 80 μL of reaction buffer, 10 μL of culture supernatant from each bacteria species described in Example 2, and 10 μL of assay substrate were added to a well of a 96-well microplate. […] At 5 minute intervals during the incubation period, absorbance at 415 nm, indicating modification of the enzyme by a lipase secreted by the cells, was automatically measured using a BioRad Benchmark Microplate reader.

[2] = tested on: Streptococcus salivarius; experiment: Glass microfiber filter biosensor, S. salivarius culture; assay type: biochemical; settings: Quadrant #3, S. salivarius; 37° C., 30 minutes
Procedure: (§3) An example of a biosensor for the detection of an enzyme secreted by Staphylococcus epidermidis (S. epidermidis), and therefore, for the detection of Staphylococcus epidermidis now follows. A […] solution of 20 mM p-nitrophenyl Caprate (in ispropanol) was applied to a 2.5 cm glass microfiber filter (Whatman GF/A). The isopropanol was allowed to evaporate at room temperature for 30 minutes, leaving the substrate bound to the filter. After the filter was completely dry, a single drop of bacterial culture was applied to each quadrant of the filter. In Quadrant #1, Staphylococcus aureus was applied; in Quadrant #2, Staphylococcus epidermidis was applied; in Quadrant #3 Streptococcus salivarius was applied, and in Quadrant #4, media was applied as a control. The filter was incubated at 37° C. for 30 minutes, and detection of a yellow dye, indicating modification of the substrate by an enzyme in the bacteria was detected.

[3] = tested on: lipase from S. aureus; experiment: Lipase assay, S. aureus culture supernatant; assay type: biochemical, Staphylococcus aureus; settings: 20 mM Tris (pH 8.5), 37° C., 60 minutes
Procedure: A culture of each of the following bacterial species was grown to saturation in Brain Heart Infusion (BHI) broth at 37° C. with vigorous shaking (˜200 rpm), using methods that are standard in the art: Staphylococcus aureus; Staphylococcus epidermidis; Serratia marcescens; Streptococcus salivarius; Escherichia coli; Pseudomonas aeruginosa; and Enterococcus faecalis. After overnight growth (to saturation), a 1 mL sample of each culture was obtained, and the cells were removed from the culture supernatant by centrifugation at 12,000×g for 5 minutes. The remaining culture supernatants were stored on ice until required (less than one hour). The bacteria were assayed for the presence or absence of specific enzymes as described below. Alternatively, the bacterial cells are not separated from the culture supernatant, but rather, the assay is carried out on a sample containing the cells still in suspension in their culture broth.
To test for the presence or absence of lipases secreted by bacteria, the lipase substrate p-nitrophenyl caprate, obtained from Sigma (Catalog No.: N-0252). This lipase substrate consists of capric acid, a ten-carbon lipid molecule, esterified with the dye para nitrophenol (detectable label) as described above. The substrate was dissolved in isopropyl alcohol at a concentration of 8 mM (2.35 mg/mL). A reaction buffer containing 20 mM Tris (pH 8.5) was also prepared.
To perform the lipase assay, 80 μL of reaction buffer, 10 μL of culture supernatant from each bacteria species described in Example 2, and 10 μL of assay substrate were added to a well of a 96-well microplate. Each bacterial species was assayed individually, and the assays were performed in triplicate. The 96-well plate was incubated at 37° C. for 60 minutes. At 5 minute intervals during the incubation period, absorbance at 415 nm, indicating modification of the enzyme by a lipase secreted by the cells, was automatically measured using a BioRad Benchmark Microplate reader.
However, it is known that bacterial lipases do show strong substrate specificity with regard to the chain length of the fatty acid they hydrolyze (Van Kampen et al., BBA, 1544: 229, 2001) and to the location in a lipid layer. The degree that the environment of the substrate affects the efficiency of hydrolysis depends on the particular enzyme. To test this for the lipase from S. aureus, the above-described lipase assay was performed in the presence of several detergent and solvent additives. The reaction buffer consisted of 20 mM Tris (pH 8.3) with 1 mM ZnSO4 added, plus either nothing additional (control), 20% methanol, 20% DMSO, or 10 mM Triton X-100.

[4] = tested on: Staphylococcus epidermidis; experiment: Glass microfiber filter biosensor, S. epidermidis culture; assay type: biochemical; settings: Quadrant #2, S. epidermidis; 37° C., 30 minutes
Procedure: as §3

[5] = tested on: Staphylococcus aureus; experiment: Glass microfiber filter biosensor, S. aureus culture; assay type: biochemical; settings: Quadrant #1, S. aureus; 37° C., 30 minutes
Procedure: as §3

[6] = tested on: lipases secreted by bacteria (Staphylococcus epidermidis); experiment: Lipase assay, S. epidermidis culture supernatant; assay type: biochemical; settings: 20 mM Tris (pH 8.5), 37° C., 60 minutes
Procedure: as §1, §2

[7] = tested on: P. aeruginosa protease; experiment: Protease assay on porcine wound fluid; assay type: biochemical, Pseudomonas aeruginosa; settings: porcine wounds infected with 10^3, 10^4 or 10^5 bacteria, 3 days; 1 hour reaction; FIG. 18
Procedure: In order to test for the presence of enzymatic activity in a wound bacterial protease assay for detection of P. aeruginosa was performed on samples obtained from wound infections made in pigs. […] Each of the resulting cultures was diluted into sodium phosphate buffer at pH 7.2 with 150 mM NaCl (PBS buffer) to give samples containing 10^5, 10^4, and 10^3 bacteria total in 100 μL. Immediately after surgery to create a series of partial thickness wounds was performed on the pigs, the wound surfaces were treated with calcium chloride solution for a short period and then patted dry. A buffer solution containing diluted bacterial cultures was placed on the surface of the wounds. The wounds were then covered and the infections were allowed to grow for a period of 3 days. After the dressing was removed from the pigs and the wounds were scored for degree of inflammation, 100 μL of PBS buffer was added to the wound surface and the extracted wound fluid was recovered by pipet. Each of the samples was split in half and 50 μL were used to inoculate BHI plates and the other 50 μL were placed in plastic tubes and immediately frozen at −80° C.
The buffer used to dilute the wound fluid in the protease assays was PBS. […] The reaction was followed on a fluorimetric plate reader using an excitation wavelength of 355 nm and an emission wavelength of 528 nm.

[8] = tested on: Pseudomonas aeruginosa protease; experiment: Protease assay for P. aeruginosa (strains P1, PA14, ZK45 supernatants); assay type: biochemical; settings: 20 mM tris (pH 7.5), 150 mM NaCl, 37° C.
Source text: The peptide substrates used here were labeled with the fluorescent probe edans (5-((2-aminoethyl)amino)naphthalene-1-sulfonic acid) and the quencher dye molecule dabcyl ((4-(4-(dimethylamino)phenyl)azo)benzoic acid). The labeled peptide sequences used were as follows: […]

[9] = tested on: DNA metabolism enzymes (exonuclease and endonuclease) in bacterial supernatants; experiment: Fluorescent DNA probe assay for DNA metabolism activity; assay type: biochemical; settings: supernatants of eight bacteria; excitation 485 nm, emission 538 nm; 37° C.
Procedure: Another method for detecting DNA metabolism activity is to generate synthetic colorimetric and fluorescent DNA probes that can indicate DNA hydrolysis (exonuclease and endonuclease activity). The method was carried out as follows. Two complementary oligonucleotides were generated. One oligonucleotide was labeled with self-quenching fluorescent labels, while the other primer remained unlabeled. The sequences of the oligonucleotides were as follows: Unlabeled Sequence 5′-[…]-3 (SEQ ID NO: 6); and Labeled Sequence FL-5′-[…]-3′-FL (SEQ ID NO: 7). […] The culture was spun down by centrifugation and the supernatant was collected. The fluorescent labeled primer and its unlabeled complement were dissolved in water at a concentration of approximately 1 mg/mL. The primers were heated to melting temperature for 2 minutes at 92° C., then allowed to anneal for 5 minutes at 43° C. After annealing, the DNA substrate was added to the reaction buffer (20 mM tris (pH 7.4) with 150 mM NaCl) and incubated at 37° C. for 10 minutes. The reaction was carried out with 7 μL of culture supernatant and 3 μL of DNA substrate in 100 μL total volume at 37° C. The reaction was followed using a fluorimetric plate reader using an excitation wavelength of 485 nm and an emission wavelength of 538 nm. […]

[10] = tested on: Pseudomonas; experiment: Peptide on positively charged membrane exposed to Pseudomonas culture medium; assay type: biochemical; settings: FIG. 17C
Source text: Electrostatic interactions make use of the charges on the peptide or chromophore to bind it to a surface to make a biosensor. For example, ion exchange membranes with a strong negative (ICE450) or positive (SB-6407) charge are available from Pall Gelman Laboratory, Ann Arbor, Mich. It is possible to bind the peptide substrates through interactions with their charged groups. The peptide substrate papa2, as described herein, was spotted onto a positively charged membrane and exposed to Pseudomonas culture medium.

[11] = tested on: Pseudomonas protease; experiment: Protease assay with modified version of papa1, bacterial supernatants; assay type: biochemical, Pseudomonas aeruginosa; settings: supernatants of eight bacteria; excitation 355 nm, emission 485 nm; FIG. 17A
Procedure: The protease assay described herein for detection of P. aeruginosa was run with the modified version of papa1. […] Each of the resulting cultures was spun down by centrifugation and the supernatant was collected. The assays were run in 20 mM tris buffer (pH 7.4) with 150 mM NaCl added. The reaction was carried out with 7 μL of supernatant and 3 μL of peptide substrate (5 mg/mL in water) in 100 μL total volume at 37° C. The reaction was followed on a fluorimetric plate reader using an excitation wavelength of 355 nm and an emission wavelength of 485 nm.

[12] = tested on: surface of Staphylococcus; experiment: Binding of fluorescent peptide to the surface of Staphylococcus; settings: predicted
Source text: Substrates for use in the present invention include any molecule, either synthetic or naturally-occurring that can interact with an enzyme of the present invention. Examples of substrates include those substrates described herein, as well as substrates for these enzymes that are known in the art. […] Such substrates described herein can be obtained from commercial sources, e.g., Sigma (St. Louis, Mo.), or can be produced, e.g., isolated or purified, or synthesized using methods known to those of skill in the art.

For `CCCCCCCCCC(=O)Oc1ccc([N+](=O)[O-])cc1` [p-nitrophenyl caprate], the “color change (absorbance at 415 nm)” value [1] was “showed no color change”, the “modification of labeled substrate on filter (yellow dye)” value (from here on “modification of labeled substrate”) [2] was “no modification of the labeled substrate was detected” and the “color change (absorbance at 415 nm)” value [3] was “showed a dramatic color change”. For the same compound, the “modification of labeled substrate” value [4] was “Modification of the labeled substrate was detected”, the “modification of labeled substrate” value [5] was “no modification of the labeled substrate was detected” and the “color change (absorbance at 415 nm)” value [6] was “showed a dramatic color change”.

With “Edans - KAAHKSALKSAE - Dabcyl (Edans-KAAHKSALKSAE-{Dabcyl′}) [papa1, labeled peptide substrate of Pseudomonas aeruginosa, origin PepA]” the “detection of P. aeruginosa in extracted wound fluid (relative fluorescence)” value [7] was “samples containing P. aeruginosa were detectable” and the “enzymatic cleavage of peptide substrate (relative fluorescent intensity)” value [8] was “cleaved”.

“FL-5′-AGGAATTCAGTGGATCCTCGAGAGG-3′-FL (antisense CCTCTCGAGGATCCACTGAATTCCT; sense: DNA, backbone not given here; antisense: DNA, backbone and methylation of C not given here; further chemistry not fully specified) [labeled DNA probe]” was tested, and the “DNA metabolic activity (relative fluorescence of labeled probe)” value [9] was “detected specific DNA metabolic activity associated with Enterococcus”.

“KKAS(E-edans)AAHKSALKSAE(K-dabcyl) (KKASE(EDANS)AAHKSALKSAEK(Dabcyl″)) [papa2, papa1 version with two lysine groups as tag for surface attachment]” was tested, and the “fluorescence upon cleavage on membrane” value [10] was “upon cleavage of the peptide yellow fluorescence” and the “cleavage of protease substrate (relative fluorescence), comparison of species” value [11] was “greatest fluorescence in the sample containing Pseudomonas”.

With “PGTKLYTVPW-pyrene [Alt derived fluorescent peptide]” the “change in fluorescence upon binding” value [12] was “increase in fluorescence upon binding”.
